# Test results from ChEMBL document CHEMBL1201862, “PubChem BioAssay data set” (2004).
#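 Exposure lasted 48 hours, with cells grown in 96-well plates and compounds tested at five concentrations. The concentration for 50% growth inhibition is given as GI50.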 Activity calls are given as the source filed them. Cut-off read from the data, not from the text of the source: active = GI50 up to about 1.1 µM and inactive = higher.
# Columns and labels:
# Experiment in all cases: NCI anticancer screen, dose series, 48 h
# 786-0 = test system: 786-0
# A498 = test system: A498
# A549 = test system: A549
# ACHN = test system: ACHN
# BT-549 = test system: BT-549
# CAKI-1 = test system: CAKI-1
# CCRF-CEM = test system: CCRF-CEM
# COLO 205 = test system: COLO 205
# DU-145 = test system: DU-145
# EKVX = test system: EKVX
# HCC 2998 = test system: HCC 2998
# HCT-116 = test system: HCT-116
# HCT-15 = test system: HCT-15
# HL-60 = test system: HL-60
# HOP-62 = test system: HOP-62
# HT-29 = test system: HT-29
# Hs-578T = test system: Hs-578T
# IGROV-1 = test system: IGROV-1
# K562 = test system: K562
# KM12 = test system: KM12
# LOX IMVI = test system: LOX IMVI
# M14 = test system: M14
# MCF7 = test system: MCF7
# MDA-MB-231 = test system: MDA-MB-231
# MDA-MB-435 = test system: MDA-MB-435
# MDA-N = test system: MDA-N
# MOLT-4 = test system: MOLT-4
# Malme-3M = test system: Malme-3M
# NCI-H226 = test system: NCI-H226
# NCI-H23 = test system: NCI-H23
# NCI-H460 = test system: NCI-H460
# NCI-H522 = test system: NCI-H522
# NCI/ADR-RES = test system: NCI/ADR-RES
# OVCAR-3 = test system: OVCAR-3
# OVCAR-4 = test system: OVCAR-4
# OVCAR-5 = test system: OVCAR-5
# OVCAR-8 = test system: OVCAR-8
# PC-3 = test system: PC-3
# RPMI-8226 = test system: RPMI-8226
# SF-268 = test system: SF-268
# SF-295 = test system: SF-295
# SF-539 = test system: SF-539
# SK-MEL-2 = test system: SK-MEL-2
# SK-MEL-5 = test system: SK-MEL-5
# SK-OV-3 = test system: SK-OV-3
# SN12C = test system: SN12C
# SNB-19 = test system: SNB-19
# SNB-75 = test system: SNB-75
# SR = test system: SR
# SW-620 = test system: SW-620
# T47D = test system: T47D
# TK-10 = test system: TK-10
# U-251 = test system: U-251
# UACC-257 = test system: UACC-257
# UACC-62 = test system: UACC-62
# UO-31 = test system: UO-31
compound,measurement,setting,value
NC(=O)c1nnc2ccc(F)cc2c1N,GI50,786-0,> 100 µM (inactive)
same,GI50,A498,> 100 µM (inactive)
same,GI50,A549,> 100 µM (inactive)
same,GI50,ACHN,88.9 µM (inactive)
same,GI50,BT-549,68.4 µM (inactive)
same,GI50,CAKI-1,> 100 µM (inactive)
same,GI50,CCRF-CEM,> 100 µM (inactive)
same,GI50,COLO 205,> 100 µM (inactive)
same,GI50,DU-145,> 100 µM (inactive)
same,GI50,EKVX,> 100 µM (inactive)
same,GI50,HCC 2998,> 100 µM (inactive)
same,GI50,HCT-116,> 100 µM (inactive)
same,GI50,HCT-15,> 100 µM
same,GI50,HL-60,> 100 µM (inactive)
same,GI50,HOP-62,> 100 µM (inactive)
same,GI50,HT-29,> 100 µM (inactive)
same,GI50,Hs-578T,> 100 µM (inactive)
same,GI50,IGROV-1,> 100 µM (inactive)
same,GI50,K562,> 100 µM (inactive)
same,GI50,KM12,> 100 µM (inactive)
same,GI50,LOX IMVI,69 µM (inactive)
same,GI50,M14,> 100 µM (inactive)
same,GI50,MCF7,> 100 µM (inactive)
same,GI50,MDA-MB-231,> 100 µM (inactive)
same,GI50,MDA-MB-435,> 100 µM (inactive)
same,GI50,MDA-N,> 100 µM (inactive)
same,GI50,MOLT-4,> 100 µM (inactive)
same,GI50,Malme-3M,> 100 µM (inactive)
same,GI50,NCI-H226,7.57 µM (inactive)
same,GI50,NCI-H23,> 100 µM (inactive)
same,GI50,NCI-H460,> 100 µM (inactive)
same,GI50,NCI-H522,94.6 µM (inactive)
same,GI50,NCI/ADR-RES,> 100 µM (inactive)
same,GI50,OVCAR-3,> 100 µM (inactive)
same,GI50,OVCAR-4,> 100 µM (inactive)
same,GI50,OVCAR-5,70 µM (inactive)
same,GI50,OVCAR-8,> 100 µM (inactive)
same,GI50,PC-3,> 100 µM (inactive)
same,GI50,RPMI-8226,> 100 µM (inactive)
same,GI50,SF-268,> 100 µM (inactive)
same,GI50,SF-295,> 100 µM (inactive)
same,GI50,SF-539,> 100 µM (inactive)
same,GI50,SK-MEL-2,> 100 µM (inactive)
same,GI50,SK-MEL-5,> 100 µM (inactive)
same,GI50,SK-OV-3,87.5 µM (inactive)
same,GI50,SN12C,> 100 µM (inactive)
same,GI50,SNB-19,> 100 µM (inactive)
same,GI50,SNB-75,> 100 µM (inactive)
same,GI50,SR,> 100 µM (inactive)
same,GI50,SW-620,> 100 µM (inactive)
same,GI50,T47D,> 100 µM (inactive)
same,GI50,TK-10,68.7 µM (inactive)
same,GI50,U-251,> 100 µM (inactive)
same,GI50,UACC-257,> 100 µM (inactive)
same,GI50,UACC-62,> 100 µM (inactive)
same,GI50,UO-31,40.3 µM (inactive)
